The results in this text go back to ChEMBL document CHEMBL2021840 (Eur J Med Chem, 2012).

T1 sequence (Q92731 whole entry): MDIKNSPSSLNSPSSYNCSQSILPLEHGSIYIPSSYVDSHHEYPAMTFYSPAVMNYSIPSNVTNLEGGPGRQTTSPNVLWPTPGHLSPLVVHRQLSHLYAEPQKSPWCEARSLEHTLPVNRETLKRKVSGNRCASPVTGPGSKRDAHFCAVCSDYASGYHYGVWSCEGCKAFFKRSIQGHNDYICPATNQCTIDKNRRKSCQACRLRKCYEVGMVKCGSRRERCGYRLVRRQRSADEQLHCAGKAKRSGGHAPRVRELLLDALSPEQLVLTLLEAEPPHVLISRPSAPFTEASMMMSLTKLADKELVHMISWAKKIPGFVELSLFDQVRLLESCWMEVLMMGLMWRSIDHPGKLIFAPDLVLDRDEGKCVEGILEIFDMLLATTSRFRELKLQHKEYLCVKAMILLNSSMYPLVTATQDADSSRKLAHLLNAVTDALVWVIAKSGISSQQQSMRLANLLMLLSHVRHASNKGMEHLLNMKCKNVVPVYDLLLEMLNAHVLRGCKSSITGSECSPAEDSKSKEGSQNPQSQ

The test system of the first experiment is MCF7. Kind of experiment: Antiproliferative activity against human MCF7 cells. Type of experiment: functional, cell-based. Particulars: Homo sapiens, MCF7; read-out: IC50; call rule not given here.
The term IC50 denotes the point on the concentration scale where inhibition reaches its midpoint. Turning to `COc1ccc(-c2sc3cc(OC)ccc3c2C(=O)c2ccc(OCCN3CCCCC3)cc2)cc1`, the IC50 came out at 300 nM.

Regarding `O=C(c1ccc(OCCN2CCCCC2)cc1)c1c(-c2ccc(O)cc2)sc2cc(O)c(F)cc12`, the IC50 turned out to be 3 nM.

For the molecule `Oc1ccc2c(Cc3ccc(OCCN4CCCCC4)cc3)c(C3CCCC3)sc2c1`, the IC50 was found to be 10 nM.

With `Cc1cc(-c2sc3cc(O)ccc3c2C(=O)c2ccc(OCCN3CCCCC3)cc2)ccc1O`, the IC50 is 1 nM.

For the molecule `Cc1cc(-c2sc3cc(O)ccc3c2C(=O)c2ccc(OCCN3CCCCC3)cc2)cc(C)c1O`, the half-maximal inhibitory concentration (IC50) was determined as 100 nM.

On to `CC(C)c1sc2cc(O)ccc2c1Cc1ccc(OCCN2CCCCC2)cc1`, for which the IC50 is 100 nM.

On to `COc1ccc2c(C(=O)c3ccc(OCCN4CCCCC4)cc3)c([C@H]3CC[C@@H](O)CC3)sc2c1`, for which the IC50 is 100 nM.

Turning to `O=C(c1ccc(OCCN2CCCCC2)cc1)c1c(-c2ccc(O)cc2)sc2ccccc12`, the IC50 was found to be 35 nM.

For the molecule `CCc1sc2cc(O)ccc2c1Cc1ccc(OCCN2CCCCC2)cc1`, the IC50 came out at 400 nM.

Turning to `O=C(c1ccc(OCCN2CCCCC2)cc1)c1c(-c2ccc(O)cc2)sc2cc(O)c(O)cc12`, the IC50 amounted to 400 nM.

Consider `O=C(c1ccc(OCCN2CCCCC2)cc1)c1c(-c2ccc(O)c(Cl)c2)sc2cc(O)ccc12`, for which the IC50 came out at 2.3 nM.

As to `O=C(c1ccc(OCCN2CCCCC2)cc1)c1c(-c2ccc(O)c(F)c2)sc2cc(O)ccc12`, the IC50 was found to be 0.3 nM.

`Cc1cc2c(C(=O)c3ccc(OCCN4CCCCC4)cc3)c(-c3ccc(O)cc3)sc2c(C)c1O`: the IC50 was found to be 500 nM.

On to `COc1ccc(-c2sc3cc(O)ccc3c2C(=O)c2ccc(OCCN3CCCCC3)cc2)cc1`, for which the half-maximal inhibitory concentration (IC50) was 1000 nM.

Consider `Oc1ccc2c(Cc3ccc(OCCN4CCCCC4)cc3)c(C3CCCCC3)sc2c1`, for which the IC50 is 10 nM.

Turning to `Cc1sc2cc(O)ccc2c1Cc1ccc(OCCN2CCCCC2)cc1`, the IC50 is 600 nM.

In the case of `O=C(c1ccc(OCCN2CCCCC2)cc1)c1c2ccc(O)cc2sc1[C@H]1CC[C@H](O)CC1`, the IC50 was 0.5 nM.

Turning to `O=C(c1ccc(OCCN2CCCCC2)cc1)c1c(-c2ccccc2)sc2ccccc12`, the IC50 stood at 300 nM.

On to `Oc1ccc2c(Cc3ccc(OCCN4CCCCC4)cc3)c([C@H]3CC[C@H](O)CC3)sc2c1`, for which the IC50 was determined as 2 nM.

For the molecule `COc1ccc2c(C(=O)c3ccc(OCCN4CCCCC4)cc3)c(-c3ccc(O)cc3)sc2c1`, the IC50 was 250 nM.

Staying with this experiment, now noted: mcf7.
Consider `C[C@]12CC[C@@H]3c4ccc(O)cc4CC[C@H]3[C@@H]1CC[C@@H]2O` [ESTRADIOL], for which the IC50 result is recorded as “Not Active”.

A further experiment concerns the target T1, Estrogen receptor beta (Homo sapiens, UniProt Q92731). Kind of experiment: Displacement of [3H]-17beta-estradiol from ERbeta.
Conditions: not given
Background: Loss of bound radioactivity is the signal in a displacement assay; it reports binding, not function.
`O=C(c1ccc(N2CCN(C(=O)c3ccc(Cl)cc3)CC2)cc1)c1c(-c2ccc(O)cc2)sc2cc(O)ccc12` showed an IC50 of 9.07 nM.

The next experiment addresses T2, Estrogen receptor (Homo sapiens, UniProt P03372).
T2 sequence (P03372 whole entry): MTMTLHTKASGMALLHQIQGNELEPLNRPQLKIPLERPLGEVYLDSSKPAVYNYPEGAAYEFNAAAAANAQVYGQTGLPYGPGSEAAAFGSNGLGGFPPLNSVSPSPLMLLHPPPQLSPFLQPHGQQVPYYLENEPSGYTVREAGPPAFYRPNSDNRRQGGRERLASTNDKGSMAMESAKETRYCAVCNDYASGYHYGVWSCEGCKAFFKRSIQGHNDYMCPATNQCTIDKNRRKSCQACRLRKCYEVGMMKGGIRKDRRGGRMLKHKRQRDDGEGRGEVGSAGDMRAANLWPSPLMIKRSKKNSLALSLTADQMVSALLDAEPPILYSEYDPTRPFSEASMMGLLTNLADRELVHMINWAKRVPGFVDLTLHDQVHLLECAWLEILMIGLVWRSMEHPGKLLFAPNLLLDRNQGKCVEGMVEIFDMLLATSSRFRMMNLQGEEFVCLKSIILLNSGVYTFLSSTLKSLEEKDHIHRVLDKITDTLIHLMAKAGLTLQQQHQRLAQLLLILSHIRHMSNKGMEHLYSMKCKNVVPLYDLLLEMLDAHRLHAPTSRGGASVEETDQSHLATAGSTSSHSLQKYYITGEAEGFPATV
Nature of the experiment: Displacement of [3H]-17beta-estradiol from ERalpha.
Conditions: not given
In turn, `O=C(c1ccc(N2CCN(C(=O)c3ccc(Cl)cc3)CC2)cc1)c1c(-c2ccc(O)cc2)sc2cc(O)ccc12` came in with an IC50 of 0.22 nM.

Another experiment concerns the target T1, Estrogen receptor beta. Kind of experiment: Relative binding affinity to human ERbeta.
Conditions: not given
For `O=C(c1ccc(OCCN2CCCCC2)cc1)c1c(-c2ccccc2CCF)sc2cc(O)ccc12`, the relative binding affinity (RBA) came to 27.

Molecule `C[C@]12CC[C@@H]3c4ccc(O)cc4CC[C@H]3[C@@H]1CC[C@@H]2O` [ESTRADIOL] had a relative binding affinity (RBA) of 3.5.

`O=C(c1ccc(OCCN2CCCCC2)cc1)c1c(-c2ccccc2CCCF)sc2cc(O)ccc12`: the relative binding affinity (RBA) was found to be 30.

Turning to `O=C(c1ccc(OCCN2CCCCC2)cc1)c1c(-c2ccc(O)cc2CCCF)sc2cc(O)ccc12`, the relative binding affinity (RBA) worked out at 24.

In a further experiment the test system is MCF7. Nature of the experiment: Antiproliferative activity against human MCF7 cells after 7 days. Format: functional, cell-based. Particulars: MCF7, 168 h.
Take `C[C@H]1CCN(CCOc2ccc(C(=O)c3c(-c4ccc(O)cc4)sc4cc(O)ccc34)cc2)C1`: the IC50 worked out at 1 nM.

The molecule `C[C@H](COc1ccc(C(=O)c2c(-c3ccc(O)cc3)sc3cc(O)ccc23)cc1)N1CCCC1` displayed an IC50 of 0.2 nM.

System in a further experiment: not listed separately
Nature of the experiment: Selectivity ratio of IC50 for ERbeta to IC50 for ERalpha.
Conditions: not given
For `Cc1cccc(C(=O)N2CCN(c3ccc(C(=O)c4c(-c5ccc(O)cc5)sc5cc(O)ccc45)cc3)CC2)c1`, the Ratio IC50 came out at 46.2.

`O=C(c1ccc(N2CCN(C(=O)c3ccc(Cl)cc3)CC2)cc1)c1c(-c2ccc(O)cc2)sc2cc(O)ccc12`: the Ratio IC50 amounted to 41.

In the case of `CC(C)N1CCN(c2ccc(C(=O)c3c(-c4ccc(O)cc4)sc4cc(O)ccc34)cc2)CC1`, the Ratio IC50 amounted to 121.
